Data taken from PMC7413254 (Nature Communications, 2020).
Changes are numbered by the printed parent chain. Where two headings read alike, the source gives them in different places.

Tests used:
[1] = molecular target: T1, PfCRT^3D7 in C2^GC03 parasites (Plasmodium falciparum, UniProt Q8IBZ9); experiment: P. falciparum H+-efflux assay (rate of DV alkalinisation after concanamycin A); type: cell-based; conditions: C2GC03; test solute 10 μM
T1 construct: PfCRT also functions as a peptide transporter within its native environment of the DV membrane; expressed in transfected cells; host or cells: P. falciparum pfcrt transfectant line C2^GC03 (saponin-isolated trophozoites)
T1 sequence (Q8IBZ9 1-424): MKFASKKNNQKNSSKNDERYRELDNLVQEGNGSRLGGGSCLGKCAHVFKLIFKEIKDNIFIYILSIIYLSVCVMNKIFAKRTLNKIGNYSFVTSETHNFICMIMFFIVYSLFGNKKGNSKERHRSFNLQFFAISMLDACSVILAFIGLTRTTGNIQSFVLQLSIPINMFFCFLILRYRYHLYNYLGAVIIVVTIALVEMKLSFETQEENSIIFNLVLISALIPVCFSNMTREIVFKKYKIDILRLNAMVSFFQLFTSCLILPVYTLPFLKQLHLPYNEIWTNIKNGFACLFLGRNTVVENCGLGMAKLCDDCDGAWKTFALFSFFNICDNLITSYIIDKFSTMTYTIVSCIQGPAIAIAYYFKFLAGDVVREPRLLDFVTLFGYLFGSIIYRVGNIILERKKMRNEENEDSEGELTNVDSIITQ

[2] = molecular target: T2, PfCRT^Dd2 in C4^Dd2 parasites (Plasmodium falciparum, UniProt Q8IBZ9, A220S/I356T/K76T/M74I/N326S/N75E/Q271E/R371I); experiment: as above; type: cell-based; conditions: C4Dd2; test solute 10 μM
T2 construct: PfCRT also functions as a peptide transporter within its native environment of the DV membrane; expressed in transfected cells; host or cells: P. falciparum pfcrt transfectant line C4^Dd2 (saponin-isolated trophozoites)
T2 sequence (Q8IBZ9 1-424 M74I/N75E/K76T/A220S/Q271E/N326S/I356T/R371I): T1 sequence (Q8IBZ9 1-424) with M74I, N75E, K76T, A220S, Q271E, N326S, I356T, R371I

PfCRT^3D7 [3] = molecular target: T3, PfCRT^3D7 (Plasmodium falciparum, UniProt Q8IBZ9); experiment: cell-based; type: cell-based; conditions: SEM
Procedure, shortened: (§1)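 Transport measured in Xenopus oocytes expressing the transporters, 1.5 h at 27.5 °C in ND96 pH 5.5 unless noted. For trans-stimulation, VF-6 injected in 25 nL ND96 at pH 5.0–7.0 or Na^+-free (choline) buffer; intracellular levels based on ~400 nL oocyte volume. Ten oocytes per treatment, ≥4 experiments.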

PfNT1 = molecular target: T4, PfNT1 (Plasmodium falciparum, UniProt Q8IDM6); experiment: cell-based; type: cell-based; conditions: […], read-out: Uptake of [3H]CQ (% PfCRTDd2 control), trans-stimulation, PfNT1; SEM
T4 construct: expressed in transfected cells; host or cells: Xenopus laevis oocytes (stage V-VI), cRNA-injected
T4 sequence (Q8IDM6 whole entry): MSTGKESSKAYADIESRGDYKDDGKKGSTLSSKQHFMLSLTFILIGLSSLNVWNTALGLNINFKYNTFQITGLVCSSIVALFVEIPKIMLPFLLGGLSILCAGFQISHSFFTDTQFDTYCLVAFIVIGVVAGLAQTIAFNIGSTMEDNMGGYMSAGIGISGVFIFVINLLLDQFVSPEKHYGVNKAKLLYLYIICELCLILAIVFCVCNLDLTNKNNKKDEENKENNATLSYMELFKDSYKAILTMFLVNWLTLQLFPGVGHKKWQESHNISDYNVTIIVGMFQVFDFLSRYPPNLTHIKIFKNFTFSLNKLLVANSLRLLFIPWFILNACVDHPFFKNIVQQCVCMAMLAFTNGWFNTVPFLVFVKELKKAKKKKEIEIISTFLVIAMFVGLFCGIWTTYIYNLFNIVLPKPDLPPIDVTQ
Procedure, shortened: as §1

PfCRT [4] = experiment: Potential co-substrates tested for influx of VF-6 via PfCRT into the oocyte; type: cell-based, Plasmodium falciparum; design: key: X: Compounds that have been tested as potential co-substrates but are not required for influx of VF-6 via PfCRT into the oocyte
PfCRT [5] = experiment: Test of solutes as potential co-substrates for influx of VF-6 via PfCRT into the oocyte; type: cell-based, Plasmodium falciparum; design: key: X: Compounds that have been tested as potential co-substrates but are not required for influx of VF-6 via PfCRT into the oocyte; conditions: X = tested
non-expressing oocytes [6] = type: cell-based, Xenopus laevis; conditions: SEM
Procedure, shortened: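 Oocytes (ten per treatment, ≥4 independent frogs/days) were preloaded by injecting VF-6 in 25 nL ND96 at pH 5.0, 5.5, 6.0 or 7.0, or Na^+-free choline buffer, then uptake run 1.5 h, 27.5 °C, ND96 pH 5.5 by default. Internal concentrations assumed ~400 nL oocyte volume.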

non-expressing oocytes [7] = experiment: cells; type: cell-based, Xenopus laevis; conditions: Xenopus laevis, Oocyte
Procedure, shortened: (§2)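 Washed oocytes (ten per treatment) were exposed to label in pH 5.5 ND96 for 1.5 h at 27.5 °C. Buffer was then removed, cells rinsed in ice-cold ND96, lysed in SDS and counted.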

PfCRT [8] = experiment: Influx of VF-6 via PfCRT into the oocyte, solutes tested as potential co-substrates; type: cell-based, Plasmodium falciparum; design: key: X: Compounds that have been tested as potential co-substrates but are not required for influx of VF-6 via PfCRT into the oocyte; conditions: X marks the solute
PfCRT^Ecu1110 = PfCRT^Ecu1110 (Plasmodium falciparum, UniProt Q9N623, A220S/I356L/K76T/N326D); experiment: [3H]CQ uptake into Xenopus oocytes, cis-inhibition by unlabelled solute; type: cell-based
Chain of PfCRT^Ecu1110 (Q9N623 whole entry A220S/I356L/K76T/N326D): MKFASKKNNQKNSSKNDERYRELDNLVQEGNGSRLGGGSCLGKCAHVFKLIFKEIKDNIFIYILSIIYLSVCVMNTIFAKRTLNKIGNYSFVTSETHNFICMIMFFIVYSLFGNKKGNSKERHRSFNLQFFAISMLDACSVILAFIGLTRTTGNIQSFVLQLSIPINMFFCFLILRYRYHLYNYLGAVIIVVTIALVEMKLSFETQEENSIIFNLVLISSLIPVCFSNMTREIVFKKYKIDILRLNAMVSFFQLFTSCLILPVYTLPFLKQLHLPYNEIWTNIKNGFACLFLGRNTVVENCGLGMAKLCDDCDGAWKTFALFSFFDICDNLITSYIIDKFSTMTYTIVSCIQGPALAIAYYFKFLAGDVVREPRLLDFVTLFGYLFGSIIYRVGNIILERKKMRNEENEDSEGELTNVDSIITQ
Procedure, shortened: as §2

PfCRT^Dd2 = PfCRT^Dd2 (Plasmodium falciparum, UniProt Q9N623, A220S/I356T/K76T/M74I/N326S/N75E/Q271E/R371I); experiment: as above; type: cell-based
Chain of PfCRT^Dd2 (Q9N623 whole entry A220S/I356T/K76T/M74I/N326S/N75E/Q271E/R371I): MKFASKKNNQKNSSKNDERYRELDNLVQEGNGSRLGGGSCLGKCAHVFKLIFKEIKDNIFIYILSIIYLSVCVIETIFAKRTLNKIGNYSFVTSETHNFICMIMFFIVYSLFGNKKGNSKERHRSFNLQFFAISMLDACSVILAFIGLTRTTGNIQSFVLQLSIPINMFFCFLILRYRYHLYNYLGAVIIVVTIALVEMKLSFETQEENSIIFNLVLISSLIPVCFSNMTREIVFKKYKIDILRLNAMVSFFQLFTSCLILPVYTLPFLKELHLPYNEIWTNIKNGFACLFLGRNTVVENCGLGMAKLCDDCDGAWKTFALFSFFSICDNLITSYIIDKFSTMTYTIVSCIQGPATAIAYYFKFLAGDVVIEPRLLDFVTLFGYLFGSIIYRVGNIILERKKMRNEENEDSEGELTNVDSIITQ
Procedure, shortened: as §2

PfCRT^3D7 [9] = molecular target: T3, PfCRT^3D7; experiment: cell-based; type: cell-based
Procedure, shortened: as §2

[10] = molecular target: T5, PfCRT^7G8 in C6^7G8 parasites (Plasmodium falciparum, UniProt Q8IBZ9, A220S/C72S/I351M/I356L/K76T/N326D); experiment: P. falciparum H+-efflux assay (rate of DV alkalinisation after concanamycin A); type: cell-based; conditions: C67G8; test solute 10 μM
T5 construct: PfCRT also functions as a peptide transporter within its native environment of the DV membrane; expressed in transfected cells; host or cells: P. falciparum pfcrt transfectant line C6^7G8 (saponin-isolated trophozoites)
T5 sequence (Q8IBZ9 1-424 C72S/K76T/A220S/N326D/I351M/I356L): T1 sequence (Q8IBZ9 1-424) with C72S, K76T, A220S, N326D, I351M, I356L

[11] = read-out: Uptake of [3H]CQ (% PfCRTDd2 control), cis-inhibition, non-expressing oocytes, SEM
[12] = read-out: Uptake of [3H]CQ (% non-expressing oocyte control), cis-inhibition
[13] = read-out: PfCRT-mediated [3H]CQ transport, cis-inhibition (% PfCRTEcu1110 control)
[14] = read-out: Uptake of [3H]CQ (% PfCRTDd2 control), cis-inhibition, PfCRTEcu1110, SEM
[15] = read-out: Uptake of [3H]CQ (% PfCRTEcu1110 control), cis-inhibition
[16] = read-out: [3H]CQ transport (% PfCRTEcu1110 control), cis-inhibition, PfCRTEcu1110, SEM
[17] = read-out: PfCRT-mediated [3H]CQ transport, cis-inhibition (% PfCRTDd2 control)
[18] = read-out: Uptake of [3H]CQ (% PfCRTDd2 control), cis-inhibition, PfCRT3D7, SEM

CC(C)C[C@H](NC(=O)[C@H]1O[C@@H]1C(=O)O)C(=O)NCCCCN=C(N)N [E-64]
Effect on rate of DV alkalinisation / H+ leak (in words) [1]: caused a H^+ leak
Effect on rate of DV alkalinisation / H+ leak (in words) [2]: neither peptide exerted an effect

O=C(O)[C@@H]1CCCN1 [L-proline]
[3H]CQ transport (% PfCRT3D7 control), trans-stimulation, PfCRT3D7 (PfCRT^3D7 [3]): 0.2 ± 0.02 % PfCRT3D7 control
activity at 5000 µM (PfNT1): 3.1 ± 0.08%
Tested as potential co-substrate but not required for influx of VF-6 via PfCRT into the oocyte (PfCRT [4]): X
Tested as potential co-substrate but not required for influx of VF-6 via PfCRT into the oocyte (PfCRT [5]): X
Uptake of [3H]CQ (% PfCRTDd2 control), trans-stimulation, non-expressing oocytes (non-expressing oocytes [6]): 2.6 ± 0.08 % PfCRTDd2 control
inhibition at 500 µM (non-expressing oocytes [7]; [11]): 2.8 ± 0.09%
inhibition at 1000 µM (non-expressing oocytes [7]; [11]): 3.1 ± 0.03%
inhibition at 2000 µM (non-expressing oocytes [7]; [11]): 3.4 ± 0.07%
inhibition at 500 µM (non-expressing oocytes [7]; [12]): 99 ± 3.3%
inhibition at 1000 µM (non-expressing oocytes [7]; [12]): 100 ± 3.5%
inhibition at 2000 µM (non-expressing oocytes [7]; [12]): 97 ± 5.3%
Compounds that have been tested as potential co-substrates but are not required for influx of VF-6 via PfCRT into the oocyte (PfCRT [8]): X
inhibition at 500 µM (PfCRT^Ecu1110; [13]): 98 ± 4.6%
inhibition at 1000 µM (PfCRT^Ecu1110; [13]): 94 ± 3.6%
inhibition at 2000 µM (PfCRT^Ecu1110; [13]): 95 ± 2.6%
inhibition at 500 µM (PfCRT^Ecu1110; [14]): 33 ± 1.4%
inhibition at 1000 µM (PfCRT^Ecu1110; [14]): 31 ± 1.5%
inhibition at 2000 µM (PfCRT^Ecu1110; [14]): 32 ± 1.4%
inhibition at 500 µM (PfCRT^Ecu1110; [15]): 100 ± 7.7%
inhibition at 1000 µM (PfCRT^Ecu1110; [15]): 96 ± 8.1%
inhibition at 2000 µM (PfCRT^Ecu1110; [15]): 96 ± 4.3%
inhibition at 500 µM (PfCRT^Ecu1110; [16]): 30 ± 1.4%
inhibition at 1000 µM (PfCRT^Ecu1110; [16]): 28 ± 0.6%
inhibition at 2000 µM (PfCRT^Ecu1110; [16]): 29 ± 1.4%
inhibition at 500 µM (PfCRT^Dd2; [17]): 95 ± 4.2%
inhibition at 1000 µM (PfCRT^Dd2; [17]): 96 ± 3.2%
inhibition at 1000 µM (PfCRT^Dd2; read-out: Uptake of [3H]CQ (% PfCRTDd2 control), cis-inhibition, PfCRTDd2, SEM): 98 ± 4.8%
inhibition at 500 µM (PfCRT^3D7 [9]; read-out: Uptake of [3H]CQ (% PfCRT3D7 control), cis-inhibition): 99 ± 6.2%
inhibition at 500 µM (PfCRT^3D7 [9]; [18]): 2.3 ± 0.01%
inhibition at 2000 µM (PfCRT^3D7 [9]; [18]): 2.6 ± 0.04%

CC(=O)N[C@@H](CC(C)C)C(=O)N[C@@H](CC(C)C)C(=O)N[C@H](C=O)CCCNC(=N)N [Leupeptin, leupeptin]
Effect on rate of DV alkalinisation / H+ leak (in words) [1]: caused a H^+ leak
Effect on rate of DV alkalinisation / H+ leak (in words) [10]: induced a H^+ leak
Effect on rate of DV alkalinisation / H+ leak (in words) [2]: neither peptide exerted an effect

Cc1cccc(C)c1OCC(=O)N[C@@H](Cc1ccccc1)[C@@H](O)C[C@H](Cc1ccccc1)NC(=O)[C@H](C(C)C)N1CCCNC1=O [lopinavir]
Effect on rate of DV alkalinisation / H+ leak (in words) [1]: without effect
Effect on rate of DV alkalinisation / H+ leak (in words) [10]: without effect
Effect on rate of DV alkalinisation / H+ leak (in words) [2]: without effect

CC(C)c1nc(CN(C)C(=O)N[C@H](C(=O)N[C@@H](Cc2ccccc2)C[C@H](O)[C@H](Cc2ccccc2)NC(=O)OCc2cncs2)C(C)C)cs1 [ritonavir]
Effect on rate of DV alkalinisation / H+ leak (in words) [1]: without effect
Effect on rate of DV alkalinisation / H+ leak (in words) [10]: without effect
Effect on rate of DV alkalinisation / H+ leak (in words) [2]: without effect
